{
  "source": "patent US6720450B2",
  "about": "“Pesticidal activity of functionalized cyclopropanes” (North Carolina State University, priority 2001, dated 2004)",
  "data": [
    {"tested_on": "mosquito larvae", "test": "Mosquito larval mortality bioassay in microtiter plates", "assay_type": "in vivo", "conditions": "72 h; larval mortality followed for three days; 160 μL sterile water, 1-4 μL test compound in dimethylsulfoxide, 10 μL 2% Brewer's yeast", "experimental": "The term “LC50” also is used hereinafter and refers to the concentration of a pest-controlling compound of the invention in the ambient environment of the pest species that is able to cause a 50% mortality of such species. For example, in tests described hereinafter, wherein compounds of the invention are tested for pesticidal efficacy against mosquito larvae, the compounds are present in a state of dynamic equilibrium in the aqueous environment containing the yeast and are taken up by the filter-feeding mosquito larvae during their feeding on the yeast.\n(§1) Mosquito larval mortality was followed for three days in microtiter plates containing 160 μL sterile water, 1-4 μL of the test compound dissolved in dimethylsulfoxide, and 10 μL of 2% Brewer's yeast.\nas §1, with “yeast. Controls were run under the same conditions without the test compounds. Larval mortality in the controls was 3% for 1-3 μL dimethylsulfoxide, and up to 20% for 4 μL dimethylsulfoxide.” for “yeast.”", "units": {"LC50": "µM"}, "values": [
      {"smiles": "O=C(O)CCC1CC1CCc1ccccc1", "note": "(stereo not drawn) [IBI-215, 7-Phenyl-trans-(4,5-methano)heptanoic acid]", "LC50": "180 ± 30"},
      {"smiles": "O=C(O)CCC1CC1CCC1CCCCC1", "note": "(stereo not drawn) [IBI-216, 7-Cyclohexyl-trans-(4,5-methano)heptanoic acid]", "LC50": "300 ± 10"},
      {"smiles": "O=C(O)CCC1CC1CCc1ccc(-c2ccccc2)cc1", "note": "(stereo not drawn) [IBI-217, 7-(4-Phenyl)phenyl-trans-(4,5-methano)heptanoic acid]", "LC50": "130 ± 40"}
    ]}
  ]
}
